From patent US20260374751A1, “AMIDE PRODRUGS AND USES THEREOF” (Autobahn Therapeutics, Inc., priority 2022, published 2026)

How the values were obtained:
Assay type in all cases: biochemical
S1P1 = S1P1 (Homo sapiens, UniProt P21453); assay: S1P1 receptor agonism (EC50 statement)
S1P5 = S1P5 (Homo sapiens, UniProt Q9H228); assay: S1P5 receptor agonism (EC50 statement)
[1] = target: T1, recombinant human FAAH (rhFAAH) (Homo sapiens, UniProt O00519); assay: FAAH substrate evaluation: formation of acid metabolite by purified recombinant human FAAH (rhFAAH); conditions: role: substrate; 1 μM test compound, 0.5 ng/μL rhFAAH, 1.25% ethanol or 1 μM PF-3845 (FAAH inhibitor), 0.1% BSA, Tris-EDTA pH 8.0, room temperature, 0-60 minutes
T1 sequence (O00519 1-579): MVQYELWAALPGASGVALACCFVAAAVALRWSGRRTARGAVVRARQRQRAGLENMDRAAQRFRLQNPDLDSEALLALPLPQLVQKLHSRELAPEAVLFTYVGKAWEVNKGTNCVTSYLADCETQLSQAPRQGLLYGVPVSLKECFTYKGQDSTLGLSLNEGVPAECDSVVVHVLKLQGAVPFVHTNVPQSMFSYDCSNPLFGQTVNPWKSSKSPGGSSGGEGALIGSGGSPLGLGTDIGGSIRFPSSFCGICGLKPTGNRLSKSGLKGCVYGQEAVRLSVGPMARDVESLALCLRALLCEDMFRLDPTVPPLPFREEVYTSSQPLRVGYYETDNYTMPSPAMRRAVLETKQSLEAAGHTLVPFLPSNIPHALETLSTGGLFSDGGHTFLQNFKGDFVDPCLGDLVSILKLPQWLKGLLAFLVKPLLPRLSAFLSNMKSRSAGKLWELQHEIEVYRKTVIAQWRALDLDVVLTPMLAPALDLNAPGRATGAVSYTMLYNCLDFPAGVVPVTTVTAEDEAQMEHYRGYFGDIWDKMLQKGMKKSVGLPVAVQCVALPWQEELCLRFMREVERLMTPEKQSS
Description: Purified recombinant human FAAH (rhFAAH) was purchased from Cayman Chemical (Ann Arbor, MI, USA). The total volume for each incubation was 400 μL containing a final 0.5 ng/μL rhFAAH, 1 μM test compound, 1.25% ethanol or 1 μM PF-3845 (FAAH inhibitor), and 0.1% bovine serum albumin in Tris-EDTA buffer at pH 8.0). The incubation was conducted at room temperature. At 0, 5, 15, 30 and 60 minutes, an aliquot of 30 μL reaction mixtures was removed and mixed with 300 μL acetonitrile containing 5 ng/mL terfenadine and 10 ng/mL tolbutamide as internal standards to quench the reaction. The resulting mixture was centrifuged at 4000 rpm, 4 °C for 15 minutes, and 100 μL supernatant was ready for LC-MS/MS analysis to measure the formation of acid metabolite.
Acquity Ultra Performance LC system from Waters was used for sample analysis. The chromatography was performed on a reverse phase Kinetex 2.6 μm C18 column, 2.1×30 mm, 100 Å. The mobile phase A comprised of 0.1% formic acid in water and mobile phase B comprised of 0.1% formic acid in acetonitrile with a 1.5 min run time at the flow rate of 0.9 mL/min for the acid metabolite of test compounds. The mass spectrometer (API-5500 and API Q Trap 4000 Applied Biosystems/MDS SCIEX Instruments, Framingham, MA, USA) was operated under ESI positive or negative ion MRM mode.
The formation of acid metabolite was monitored and quantified using one calibration point of 1 μM. The observed rate constant (ke) for the acid metabolite formation was calculated by plotting the metabolite concentration versus time of incubation with the slope being ke and is shown in Table 1.

Chain of S1P1 (P21453 whole entry, species assumed): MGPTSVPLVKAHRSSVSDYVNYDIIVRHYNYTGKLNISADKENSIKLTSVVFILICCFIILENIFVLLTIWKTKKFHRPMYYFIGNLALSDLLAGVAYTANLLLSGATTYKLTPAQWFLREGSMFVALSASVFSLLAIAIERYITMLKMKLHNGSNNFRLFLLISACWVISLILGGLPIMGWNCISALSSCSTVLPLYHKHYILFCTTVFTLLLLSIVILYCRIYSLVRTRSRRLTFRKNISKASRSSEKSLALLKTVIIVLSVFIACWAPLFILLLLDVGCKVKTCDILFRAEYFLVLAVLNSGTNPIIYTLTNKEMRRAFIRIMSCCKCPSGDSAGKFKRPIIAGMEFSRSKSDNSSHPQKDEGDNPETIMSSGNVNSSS
Chain of S1P5 (Q9H228 whole entry, species assumed): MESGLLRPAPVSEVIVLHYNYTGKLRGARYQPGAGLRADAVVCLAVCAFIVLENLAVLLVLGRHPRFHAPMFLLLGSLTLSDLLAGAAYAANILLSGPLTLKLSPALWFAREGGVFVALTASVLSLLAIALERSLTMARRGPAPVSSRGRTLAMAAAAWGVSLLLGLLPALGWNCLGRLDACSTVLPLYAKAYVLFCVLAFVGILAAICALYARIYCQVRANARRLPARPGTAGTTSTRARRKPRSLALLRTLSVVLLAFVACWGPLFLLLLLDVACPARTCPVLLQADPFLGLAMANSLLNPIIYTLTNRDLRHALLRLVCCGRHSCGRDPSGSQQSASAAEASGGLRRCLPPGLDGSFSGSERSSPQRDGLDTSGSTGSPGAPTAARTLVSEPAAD

SMILES | ke (observed rate constant for the acid metabolite formation) [1] | also measured
CCCc1ccc(COc2ccc3c(c2)CCC(CN2CC(C(=O)O)C2)=C3C)c(OC)c1 [Compound 1, ceralifimod] |  | EC50 (S1P1): 11.8 nM; EC50 (S1P5): 1 nM
CCCc1ccc(COc2ccc3c(c2)CCC(CN2CC(C(=O)Nc4cccnc4)C2)=C3C)c(OC)c1 [Compound 3, 1-((6-((2-methoxy-4-propylbenzyl)oxy)-1-methyl-3,4-dihydronaphthalen-2-yl)methyl)-N-(pyridin-3-yl)azetidine-3-carboxamide] | B (ke is less than 1.0 and more than 0) | 
CCCc1ccc(COc2ccc3c(c2)CCC(CN2CC(C(=O)Nc4cccnn4)C2)=C3C)c(OC)c1 [Compound 4, 1-((6-((2-methoxy-4-propylbenzyl)oxy)-1-methyl-3,4-dihydronaphthalen-2-yl)methyl)-N-(pyridazin-3-yl)azetidine-3-carboxamide] | A (ke is more than or equal to 1.0) | 
CCCc1ccc(COc2ccc3c(c2)CCC(CN2CC(C(=O)NCCCF)C2)=C3C)c(OC)c1 [Compound 5, N-(3-fluoropropyl)-1-((6-((2-methoxy-4-propylbenzyl)oxy)-1-methyl-3,4-dihydronaphthalen-2-yl)methyl)azetidine-3-carboxamide] | A (ke is more than or equal to 1.0) | 
CCCc1ccc(COc2ccc3c(c2)CCC(CN2CC(C(=O)NCC(F)(F)F)C2)=C3C)c(OC)c1 [Compound 6, 1-((6-((2-methoxy-4-propylbenzyl)oxy)-1-methyl-3,4-dihydronaphthalen-2-yl)methyl)-N-(2,2,2-trifluoroethyl)azetidine-3-carboxamide] | A (ke is more than or equal to 1.0) | 
CCCc1ccc(COc2ccc3c(c2)CCC(CN2CC(C(=O)NC4CC4)C2)=C3C)c(OC)c1 [Compound 8, N-cyclopropyl-1-((6-((2-methoxy-4-propylbenzyl)oxy)-1-methyl-3,4-dihydronaphthalen-2-yl)methyl)azetidine-3-carboxamide] | A (ke is more than or equal to 1.0) | 
CCCc1ccc(COc2ccc3c(c2)CCC(CN2CC(C(=O)N[C@@H](C)CC)C2)=C3C)c(OC)c1 [Compound 10, (S)—N-(sec-butyl)-1-((6-((2-methoxy-4-propylbenzyl)oxy)-1-methyl-3,4-dihydronaphthalen-2-yl)methyl)azetidine-3-carboxamide] | B (ke is less than 1.0 and more than 0) | 
CCCc1ccc(COc2ccc3c(c2)CCC(CN2CC(C(=O)NCCC(F)(F)F)C2)=C3C)c(OC)c1 [Compound 11, 1-((6-((2-methoxy-4-propylbenzyl)oxy)-1-methyl-3,4-dihydronaphthalen-2-yl)methyl)-N-(3,3,3-trifluoropropyl)azetidine-3-carboxamide] | A (ke is more than or equal to 1.0) | 
CCCc1ccc(COc2ccc3c(c2)CCC(CN2CC(C(=O)Nc4ccncc4)C2)=C3C)c(OC)c1 [Compound 13, 1-((6-((2-methoxy-4-propylbenzyl)oxy)-1-methyl-3,4-dihydronaphthalen-2-yl)methyl)-N-(pyridin-4-yl)azetidine-3-carboxamide] | A (ke is more than or equal to 1.0) | 
CCCCN(C)C(=O)C1CN(CC2=C(C)c3ccc(OCc4ccc(CCC)cc4OC)cc3CC2)C1 [Compound 14, N-butyl-1-((6-((2-methoxy-4-propylbenzyl)oxy)-1-methyl-3,4-dihydronaphthalen-2-yl)methyl)-N-methylazetidine-3-carboxamide] | C (ke is 0) | 
CCCCNC(=O)C1CN(CC2=C(C)c3ccc(OCc4ccc(CCC)cc4OC)cc3CC2)C1 [Compound 15, N-butyl-1-((6-((2-methoxy-4-propylbenzyl)oxy)-1-methyl-3,4-dihydronaphthalen-2-yl)methyl)azetidine-3-carboxamide] | A (ke is more than or equal to 1.0) | 
CCCc1ccc(COc2ccc3c(c2)CCC(CN2CC(C(=O)N(C)CC)C2)=C3C)c(OC)c1 [Compound 17, N-ethyl-1-((6-((2-methoxy-4-propylbenzyl)oxy)-1-methyl-3,4-dihydronaphthalen-2-yl)methyl)-N-methylazetidine-3-carboxamide] | C (ke is 0) | 

More lines, main results first:

ke (observed rate constant for the acid metabolite formation) [1] | SMILES | also measured
B (ke is less than 1.0 and more than 0) | CCCc1ccc(COc2ccc3c(c2)CCC(CN2CC(C(=O)NC)C2)=C3C)c(OC)c1 [Compound 2, 1-((6-((2-methoxy-4-propylbenzyl)oxy)-1-methyl-3,4-dihydronaphthalen-2-yl)methyl)-N-methylazetidine-3-carboxamide] | 
A (ke is more than or equal to 1.0) | CCCc1ccc(COc2ccc3c(c2)CCC(CN2CC(C(=O)NCC4CC4)C2)=C3C)c(OC)c1 [Compound 7, N-(cyclopropylmethyl)-1-((6-((2-methoxy-4-propylbenzyl)oxy)-1-methyl-3,4-dihydronaphthalen-2-yl)methyl)azetidine-3-carboxamide] | 
A (ke is more than or equal to 1.0) | CCCc1ccc(COc2ccc3c(c2)CCC(CN2CC(C(=O)N[C@H](C)CC)C2)=C3C)c(OC)c1 [Compound 9, (R)—N-(sec-butyl)-1-((6-((2-methoxy-4-propylbenzyl)oxy)-1-methyl-3,4-dihydronaphthalen-2-yl)methyl)azetidine-3-carboxamide] | 
A (ke is more than or equal to 1.0) | CCCc1ccc(COc2ccc3c(c2)CCC(CN2CC(C(=O)N4CCC4)C2)=C3C)c(OC)c1 [Compound 12, azetidin-1-yl(1-((6-((2-methoxy-4-propylbenzyl)oxy)-1-methyl-3,4-dihydronaphthalen-2-yl)methyl)azetidin-3-yl)methanone] | 
C (ke is 0) | CCCc1ccc(COc2ccc3c(c2)CCC(CN2CC(C(=O)N(CC)CC)C2)=C3C)c(OC)c1 [Compound 16, N,N-diethyl-1-((6-((2-methoxy-4-propylbenzyl)oxy)-1-methyl-3,4-dihydronaphthalen-2-yl)methyl)azetidine-3-carboxamide] | 
A (ke is more than or equal to 1.0) | CCCNC(=O)C1CN(CC2=C(C)c3ccc(OCc4ccc(CCC)cc4OC)cc3CC2)C1 [Compound 18, 1-((6-((2-methoxy-4-propylbenzyl)oxy)-1-methyl-3,4-dihydronaphthalen-2-yl)methyl)-N-propylazetidine-3-carboxamide] | 
A (ke is more than or equal to 1.0) | CCCc1ccc(COc2ccc3c(c2)CCC(CN2CC(C(=O)NCC)C2)=C3C)c(OC)c1 [Compound 19, N-ethyl-1-((6-((2-methoxy-4-propylbenzyl)oxy)-1-methyl-3,4-dihydronaphthalen-2-yl)methyl)azetidine-3-carboxamide] | 
A (ke is more than or equal to 1.0) | CCCc1ccc(COc2ccc3c(c2)CCC(CN2CC(C(=O)NOC)C2)=C3C)c(OC)c1 [Compound 20, N-methoxy-1-((6-((2-methoxy-4-propylbenzyl)oxy)-1-methyl-3,4-dihydronaphthalen-2-yl)methyl)azetidine-3-carboxamide] | 
A (ke is more than or equal to 1.0) | CCCc1ccc(COc2ccc3c(c2)CCC(CN2CC(C(=O)N(C)OC)C2)=C3C)c(OC)c1 [Compound 21, N-methoxy-1-((6-((2-methoxy-4-propylbenzyl)oxy)-1-methyl-3,4-dihydronaphthalen-2-yl)methyl)-N-methylazetidine-3-carboxamide] | 
B (ke is less than 1.0 and more than 0) | CCCc1ccc(COc2ccc3c(c2)CCC(CN2CC(C(=O)N(C)C)C2)=C3C)c(OC)c1 [Compound 23, 1-((6-((2-methoxy-4-propylbenzyl)oxy)-1-methyl-3,4-dihydronaphthalen-2-yl)methyl)-N,N-dimethylazetidine-3-carboxamide] | 
